For assay [1], the system named is Bennett hyperalgesia model in rats. Description: Hyperalgesia to thermostimulus in Bennett model in rats (plantar test), intrathecal injection. In kind it is in vivo, Sprague-Dawley rats. The source says:
Seven weeks old male Sprague-Dawley rats were used. According to the method of Yaksh et al. (J.Physiol. Behav. Vol.17, pp.1031-1036, 1976), the rat was mounted on the brain stereotaxis apparatus under sodium pentobarbital anesthesia and a polyethylene tube filled with saline was threaded about 3cm into intraspinal side through the cisternal incision.
A day after implantation, rats had no hindlimb paralysis were restrained in a prostrate position after induction of anesthetization with pentobarbital sodium. According to the method of Bennett and Xie et al. (Pain, Vol.33, pp.87-107, 1988), an incision of 2cm was cut along the skin of the femoral region of the right hindlimb, and the exposed sciatic nerve was constricted with 2 pieces of gut suture at 2 distal sites, and the incision was closed with a piece of silk suture. The left hindlimb was similarly operated on without performing any constriction of the sciatic nerve (sham-operated hindlimb).
Six days after the operation, the response latency to nociceptive thermostimulus was determined with the plantar test device, and rats with hyperalgesia were selected for the drug evaluation study on next day. […] By using a digital timer installed in the plantar testing device, the interval (response latency) from initiation of illumination to the time required for the animal to lift the hindlimb in an attempt to escape was measured. […]

A further assay deals with formalin model in rats. Description: Formalin test in rats, intrathecal injection. Conditions: for number of flinch: both doses, 2 or 20µg/10µl/rat intrathecally 10min prior to formalin, compared to vehicle treated group. In kind it is in vivo, Sprague-Dawley rats. As to the method: Eight weeks old male Sprague-Dawley rats were used. According to the method of Yaksh et al., the rat was mounted on the brain stereotaxis apparatus under sodium pentobarbital anesthesia and a polyethylene tube filled with saline was threaded approximately 3cm into intraspinal side through the cisternal incision.
A day after implantation, the rat had no hindlimb paralysis was administered 50µl of 5% formalin subcutaneously and was placed in the observational plastic cage immediately. Formalin injection time was regarded as 0min and for 1min every 5min until 60min, number of leg-up response (flinch) was counted. The compound of formula (IA-1) ((+)-trans-3-imino-5-methyl-7-chloro-2-azabicyclo[4.1.0]heptane Monohydrochloride) of the present invention was dissolved in saline, subsequently the dose of 2 or 20µg/10µl/rat was administered intrathecally via polyethylene tube 10min prior to the formalin injection.

In another assay the test system is allodynia model in rats. Particulars: treatment of 50 µmol/kg, Neuroreport, Vol. 9, pp.367-372 (1998); cited from earlier work.

Counter-ions that a name gives are not always drawn.

As for `C[C@H]1CC(=N)N[C@@H]2[C@H](Cl)[C@@H]21` [IA-1, (+)-trans-3-imino-5-methyl-7-chloro-2-azabicyclo[4.1.0]heptane Monohydrochloride], the “hyperalgesia to nociceptive thermostimulus” value in assay [1] (0.2, 2 or 20µg/10µl/rat intrathecally 20min prior to plantar test, compared to vehicle treated rats) is “improved”. Moreover, the analgetic effects result is given as “showed analgetic effects” in assay [1] (Bennett model in rats, summary statement) and “showed analgetic effects” in the assay with formalin model in rats (formalin test in rats, summary statement). Further, the number of flinch entry with formalin model in rats (first phase (0-10min after formalin injection)) and in the assay with formalin model in rats (second phase (10-60min after formalin injection)) was “decreased” in each case.
As to `COC(=O)[C@@H](N)CCCNC(=N)N[N+](=O)[O-]` [L-NAME], the “effect on allodynia model” value with allodynia model in rats is listed as “showed effect”.
